Measurements as given in paper PMC9481570, “A small molecule antagonist of SMN disrupts the interaction between SMN and RNAP II” (Nature Communications, 2022).

How the values were obtained:
FXR1 = target: T1, FXR1 (Homo sapiens, UniProt P51114); assay: ITC binding to FXR1
T1 construct: FXR1 (aa 2–132); His (N, cleaved yes); made in house; host or cells: E. coli BL21 (DE3) Codon plus RIL
Excerpt: (§1) The coding DNA fragments of following Tudor domains were cloned into pET28-MHL vector: SMN (aa 82–147), UHRF1 (aa 126–285), SMNDC1 (aa 53–130), TDRD3 (aa 554–611), SND1 (aa 650–910), TDRD2 (aa 327–420), FXR1 (aa 2–132), PHF1 (aa 28–87), SGF29 (aa 115–293), JMJD2A (aa 897–1101), 53BP1 (aa 1483–1606), SETDB1 (aa 190–410), LBR (aa 1–67), ZGPAT (aa 120–271). The coding regions of chromodomain of CBX7 (aa 8–62), PWWP domain of DNMT3A (aa 275–417), WD40 repeats of WDR5 (aa 24–334) and CW domain of ZCWPW2 (aa 21–78) were also subcloned into pET28-MHL vector to generate N-terminally His-tagged fusion protein. The MBT repeats of L3MBTL1 (aa 200–522) and L3MBTL2 (aa 170–625) were subcloned into pET28GST-LIC vector to generate N-terminally GST-His-tagged fusion protein. All the plasmids were generated by ligase independent cloning (Vazyme Biotech, C112 or ABclonal Technology, RK21020). […] The molecular weight of all protein samples was measured by mass spectrometry.
(§2) For the ITC measurement, the concentrated proteins were diluted into 20 mM Tris-HCl, pH 7.5, 150 mM NaCl (ITC buffer); the lyophilized compounds were dissolved in the same buffer, and the pH value was adjusted by adding 2 M NaOH or 2 M HCl. […] Compound concentrations were calculated from the mass and the volume of the solvent. […]

SMN_Y127A = target: T2, SMN_Y127A (Homo sapiens, UniProt Q16637, Y127A); assay: ITC binding to SMN Tudor mutant Y127A; details: Fig. 3d
T2 construct: cloned into pET28-MHL vector: SMN (aa 82–147); His (N, cleaved yes); made in house; host or cells: E. coli BL21 (DE3) Codon plus RIL
T2 sequence (Q16637 82-147 Y127A): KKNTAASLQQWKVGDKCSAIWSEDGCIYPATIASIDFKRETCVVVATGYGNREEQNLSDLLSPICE
Excerpt: as §1, §2

[1] = tested on: UHRF1_TTD R296-binding pocket mutants; assay: ITC binding to UHRF1 TTD R296-binding pocket mutants; details: Supplementary Fig. 9e
Excerpt: as §1, §2

TDRD3 = TDRD3 (Homo sapiens, UniProt Q9H7E2); assay: ITC binding to TDRD3; parameters: TDRD3 (aa 554–611); His (N, cleaved yes); made in house; host or cells: E. coli BL21 (DE3) Codon plus RIL; details: Supplementary Figs. 2 and 11b (VP-ITC); read-out: Kd, ITC binding curve, TDRD3
Sequence of TDRD3 (Q9H7E2 554-611): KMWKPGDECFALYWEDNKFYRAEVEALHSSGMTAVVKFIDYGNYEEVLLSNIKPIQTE
Excerpt: as §1, §2

T1 sequence (P51114 2-132): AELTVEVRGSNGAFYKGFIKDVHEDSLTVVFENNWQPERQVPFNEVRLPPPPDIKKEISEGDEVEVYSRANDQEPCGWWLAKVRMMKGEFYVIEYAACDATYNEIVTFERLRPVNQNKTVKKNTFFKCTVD

Cn1c2c(c(=N)c3c1CCC3)CCC2 [Compound 1, 4-methyl-2,3,4,5,6,7-hexahydrodicyclopenta[b,e]pyridin-8(1H)-imine]
Kd (FXR1; ITC, Fig. 1c): > 100 µM
ITC binding curve, FXR1 (in words) (FXR1; Supplementary Fig. 2e): Weak binding
Kd (SMN_Y127A): > 100 µM
binding to UHRF1_TTD R296-binding pocket mutants [1]: totally disrupted
Kd (TDRD3): 11 ± 1 µM
